Data as given in patent publication US8362065B2, “Carbazole carboxamide compounds useful as kinase inhibitors” (Bristol-Myers Squibb Company, priority 2008, dated 2013).

Target: T1, human recombinant Btk (Homo sapiens, UniProt Q06187)
T1 construct: purchased Invitrogen Corporation
Assay: Human Recombinant Btk Enzyme Assay
Type: biochemical
Conditions: human recombinant Btk 1 nM, ATP 20 μM, 60 min at room temperature; read-out: IC50 for Inhibition of Btk

T1 sequence (Q06187 whole entry): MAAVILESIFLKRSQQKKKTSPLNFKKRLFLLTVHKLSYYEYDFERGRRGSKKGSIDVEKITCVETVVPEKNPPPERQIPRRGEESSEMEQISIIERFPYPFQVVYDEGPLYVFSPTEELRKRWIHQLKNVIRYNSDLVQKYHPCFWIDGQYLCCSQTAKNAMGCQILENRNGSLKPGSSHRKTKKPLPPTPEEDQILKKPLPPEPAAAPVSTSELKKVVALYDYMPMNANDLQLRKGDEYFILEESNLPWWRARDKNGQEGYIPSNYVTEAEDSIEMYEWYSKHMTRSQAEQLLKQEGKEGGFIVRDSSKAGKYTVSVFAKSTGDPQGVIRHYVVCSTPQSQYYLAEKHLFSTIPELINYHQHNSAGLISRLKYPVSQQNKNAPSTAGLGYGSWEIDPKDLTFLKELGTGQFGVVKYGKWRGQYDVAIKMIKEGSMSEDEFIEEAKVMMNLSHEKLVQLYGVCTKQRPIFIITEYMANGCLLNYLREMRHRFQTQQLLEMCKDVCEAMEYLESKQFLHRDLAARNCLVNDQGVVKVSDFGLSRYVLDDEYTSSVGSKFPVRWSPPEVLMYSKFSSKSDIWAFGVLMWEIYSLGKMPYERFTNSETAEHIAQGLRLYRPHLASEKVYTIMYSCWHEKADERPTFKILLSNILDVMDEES

Row | SMILES | IC50 [nM]
1 | Cc1c(-c2ccc(C(N)=O)c3[nH]c4c(c23)CCC(CO)C4)cccc1N1C(=O)c2ccc(C(C)(C)C)cc2C1=O (centres unmarked) [Example 31-2, 5-(3-(5-tert-butyl-1,3-dioxoisoindolin-2-yl)-2-methylphenyl)-2-(hydroxymethyl)-2,3,4,9-tetrahydro-1H-carbazole-8-carboxamide] | 700
2 | CC(=O)OCC1CCc2c([nH]c3c(C(N)=O)ccc(-c4cccc(N5C(=O)c6ccc(C(C)(C)C)cc6C5=O)c4C)c23)C1 (centres unmarked) [Example 31-3, (5-(3-(5-tert-butyl-1,3-dioxoisoindolin-2-yl)-2-methylphenyl)-8-carbamoyl-2,3,4,9-tetrahydro-1H-carbazol-2-yl)mEtOAc] | 1500
3 | Cc1c(-c2ccc(C(N)=O)c3[nH]c4cc(CN)ccc4c23)cccc1N1Cc2ccccc2C1=O [Example 33-1, 7-(aminomethyl)-4-(2-methyl-3-(1-oxoisoindolin-2-yl)phenyl)-9H-carbazole-1-carboxamide] | 1.9
4 | Cc1c(-c2ccc(C(N)=O)c3[nH]c4cc(CNC(=O)CO)ccc4c23)cccc1N1Cc2ccccc2C1=O [Example 34-2, 7-((2-hydroxyacetamido)methyl)-4-(2-methyl-3-(1-oxoisoindolin-2-yl)phenyl)-9H-carbazole-1-carboxamide] | 2
5 | CC(=O)NCc1ccc2c(c1)[nH]c1c(C(N)=O)ccc(-c3cccc(N4Cc5ccc(F)cc5C4=O)c3C)c12 [Example 38-2, 7-(acetamidomethyl)-4-(3-(6-fluoro-1-oxoisoindolin-2-yl)-2-methylphenyl)-9H-carbazole-1-carboxamide] | 2.1
6 | Cc1c(NC(=O)c2ccc(F)cc2)cccc1-c1ccc(C(N)=O)c2[nH]c3cc(CN4CCCC4)ccc3c12 [Example 39-4] | 1.7
7 | Cc1c(-c2ccc(C(N)=O)c3[nH]c4cc(O)ccc4c23)cccc1N1Cc2ccccc2C1=O [Example 41-1, 7-hydroxy-4-(2-methyl-3-(1-oxoisoindolin-2-yl)phenyl)-9H-carbazole-1-carboxamide] | 16
8 | NC(=O)c1ccc(-c2ccccc2F)c2c3c([nH]c12)CCC(Oc1ccccc1)C3 (centres unmarked) [Example 47-2, 5-(2-fluorophenyl)-3-phenoxy-2,3,4,9-tetrahydro-1H-carbazole-8-carboxamide] | 4200
9 | NC(=O)c1ccc(-c2ccccc2F)c2c1[nH]c1ccc(Oc3ccccc3)cc12 [Example 48-2] | 1700
10 | NC(=O)c1ccc(Br)c2c1[nH]c1cc(NC(=O)OCc3ccccc3)ccc12 [Example 50-3, benzyl 5-bromo-8-carbamoyl-9H-carbazol-2-ylcarbamate] | 1300
11 | Cc1c(N)cccc1-c1ccc(C(N)=O)c2[nH]c3c(c12)CCC(NC(=O)OCc1ccccc1)C3 (centres unmarked) [Example 51-1, benzyl 5-(3-amino-2-methylphenyl)-8-carbamoyl-2,3,4,9-tetrahydro-1H-carbazol-2-ylcarbamate] | 400
12 | Cc1c(-c2ccc(C(N)=O)c3[nH]c4cc(NC(=O)OCc5ccccc5)ccc4c23)cccc1N1Cc2cc(C(C)(C)C)ccc2C1=O [Example 51-4, benzyl 5-(3-(5-tert-butyl-1-oxoisoindolin-2-yl)-2-methylphenyl)-8-carbamoyl-9H-carbazol-2-ylcarbamate] | 1600
13 | Cc1c(NC(=O)c2ccc(F)cn2)cccc1-c1ccc(C(N)=O)c2[nH]c3cc(NC(=O)OCc4ccccc4)ccc3c12 [Example 52-1, benzyl 8-carbamoyl-5-(3-(5-fluoropicolinamido)-2-methylphenyl)-9H-carbazol-2-ylcarbamate] | 520
14 | Cc1c(NC(=O)c2ccccn2)cccc1-c1ccc(C(N)=O)c2[nH]c3c(c12)CCC(NC(=O)OCc1ccccc1)C3 (centres unmarked) [Example 52-2, benzyl 8-carbamoyl-5-(2-methyl-3-(picolinamido)phenyl)-2,3,4,9-tetrahydro-1H-carbazol-2-ylcarbamate] | 520
15 | Cc1c(NC(=O)c2ccc(F)cc2)cccc1-c1ccc(C(N)=O)c2[nH]c3cc(N(Cc4ccccc4)Cc4ccccc4)ccc3c12 [Example 54-7, 7-(dibenzylamino)-4-(3-(4-fluorobenzamido)-2-methylphenyl)-9H-carbazole-1-carboxamide] | 830
16 | Cc1c(NC(=O)c2ccc(F)cc2)cccc1-c1ccc(C(N)=O)c2[nH]c3cc(NC(=O)[C@H](C)N)ccc3c12 [Example 57-3, 7-((S)-2-aminopropanamido)-4-(3-(4-fluorobenzamido)-2-methylphenyl)-9H-carbazole-1-carboxamide] | 2.1
17 | Cc1c(NC(=O)c2ccc(F)cc2)cccc1-c1ccc(C(N)=O)c2[nH]c3cc(NC(=O)Cc4ccncc4)ccc3c12 [Example 57-13] | 15
18 | Cc1c(NC(=O)c2ccc(F)cc2)cccc1-c1ccc(C(N)=O)c2[nH]c3cc(NC(=O)CCCN4CCOCC4)ccc3c12 [Example 57-16] | 2.1
19 | Cc1c(NC(=O)c2ccc(F)cc2)cccc1-c1ccc(C(N)=O)c2[nH]c3cc(NC(=O)CCN4CCOCC4)ccc3c12 [Example 57-18] | 2.2
20 | Cc1c(NC(=O)c2ccc(F)cc2)cccc1-c1ccc(C(N)=O)c2[nH]c3cc(NC(=O)c4ccc(C#N)cc4)ccc3c12 [Example 57-20] | 15
21 | Cc1c(NC(=O)c2ccc(F)cc2)cccc1-c1ccc(C(N)=O)c2[nH]c3cc(NC(=O)CN)ccc3c12 [Example 57-37] | 1.8
22 | Cc1c(NC(=O)c2nccn2C)cccc1-c1ccc(C(N)=O)c2[nH]c3cc(NC(=O)NC(C)C)ccc3c12 [Example 60-1, 7-(3-isopropylureido)-4-(2-methyl-3-(1-methyl-1H-imidazole-2-carboxamido)phenyl)-9H-carbazole-1-carboxamide] | 18

Row | SMILES | IC50 [nM]
23 | Cc1c(NC(=O)c2ccc(F)cc2)cccc1-c1ccc(C(N)=O)c2[nH]c3cc(NC4CCN(C)CC4)ccc3c12 [Example 61-2] | 2.2
24 | Cc1ccc2c(c1)CN(c1cncc(-c3ccc(C(N)=O)c4[nH]c5cc(NC(C)C)ccc5c34)c1C)C2=O [Example 66-2, 7-(isopropylamino)-4-(4-methyl-5-(5-methyl-1-oxoisoindolin-2-yl)pyridin-3-yl)-9H-carbazole-1-carboxamide] | 16
25 | Cc1ccc2c(c1)C(=O)N(c1cccc(-c3ccc(C(N)=O)c4[nH]c5cc(N6CCCC6=O)ccc5c34)c1C)C2 [Example 66-16] | 2
26 | Cc1c(-c2ccc(C(N)=O)c3[nH]c4cc(NC(=O)C(C)(C)C)ccc4c23)cccc1N1Cc2cc(F)ccc2C1=O [Example 66-34] | 16
27 | Cc1ccc2c(c1)C(=O)N(c1cccc(-c3ccc(C(N)=O)c4[nH]c5cc(N6CCC(C)(C)C6=O)ccc5c34)c1C)C2 [Example 66-37] | 15
28 | Cc1c(-c2ccc(C(N)=O)c3[nH]c4cc(NCC(O)CO)ccc4c23)cccc1N1Cc2ccccc2C1=O (centres unmarked) [Example 67-1, 7-(2,3-dihydroxypropylamino)-4-(2-methyl-3-(1-oxoisoindolin-2-yl)phenyl)-9H-carbazole-1-carboxamide] | 2.2
29 | Cc1c(-c2ccc(C(N)=O)c3[nH]c4cc(C(O)CO)ccc4c23)cccc1N1Cc2ccc(F)cc2C1=O (centres unmarked) [Example 70-9] | 1.5
30 | Cc1c(-c2ccc(C(N)=O)c3[nH]c4cc(C(O)CO)ccc4c23)cccc1N1Cc2ccc(F)cc2C1=O (centres unmarked) [Example 70-10] | 1
31 | Cc1ccc2c(c1)C(=O)N(c1cccc(-c3ccc(C(N)=O)c4[nH]c5cc(C(O)CO)ccc5c34)c1C)C2 (centres unmarked) [Example 70-11, 7-(1,2-dihydroxyethyl)-4-(2-methyl-3-(6-methyl-1-oxoisoindolin-2-yl)phenyl)-9H-carbazole-1-carboxamide] | 1.4
32 | CC(C)(O)C1CCc2c([nH]c3c(C(N)=O)ccc(Br)c23)C1 (centres unmarked) [Example 73-1, 5-bromo-2-(2-hydroxypropan-2-yl)-2,3,4,9-tetrahydro-1H-carbazole-8-carboxamide] | 540
33 | Cc1c(-c2ccc(C(N)=O)c3[nH]c4cc(C(C)(C)O)ccc4c23)cccc1-n1ccn2ccnc2c1=O [Example 76-2, 7-(2-hydroxypropan-2-yl)-4-(2-methyl-3-(8-oxoimidazo[1,2-a]pyrazin-7(8 H)-yl)phenyl)-9H-carbazole-1-carboxamide] | 1.3
34 | Cc1c(-c2ccc(C(N)=O)c3[nH]c4c(c23)CCC(C(C)(C)O)C4)cccc1-n1c(C)nc2ccccc2c1=O (centres unmarked) [Example 76-10, 2-(2-hydroxypropan-2-yl)-5-(2-methyl-3-(2-methyl-4-oxoquinazolin-3(4H)-yl)phenyl)-2,3,4,9-tetrahydro-1H-carbazole-8-carboxamide] | 18
35 | Cc1c(-c2ccc(C(N)=O)c3[nH]c4cc(C(C)(C)O)ccc4c23)cccc1N1Cc2ccncc2C1=O [Example 76-18] | 1.8
36 | Cc1c(-c2ccc(C(N)=O)c3[nH]c4c(c23)CCC(C(C)(C)O)C4)cccc1-n1cnc2cccc(F)c2c1=O (centres unmarked) [Example 76-41] | 18
37 | Cc1c(-c2ccc(C(N)=O)c3[nH]c4c(c23)CCC(C(C)(C)O)C4)cccc1N1Cc2ccc(C(F)(F)F)cc2C1=O (centres unmarked) [Example 76-44] | 18
38 | Cc1c(NC(=O)c2nccs2)cccc1-c1ccc(C(N)=O)c2[nH]c3cc(N4CCN(C)CC4)ccc3c12 [Example 77-2, N-(3-(1-carbamoyl-7-(4-methylpiperazin-1-yl)-9H-carbazol-4-yl)-2-methylphenyl)thiazole-2-carboxamide] | 1.9
39 | Cc1c(NC(=O)c2nccn2C)cccc1-c1ccc(C(N)=O)c2[nH]c3cc(C(O)CO)ccc3c12 (centres unmarked) [Example 78-2] | 1.6
40 | Cc1ccc2c(Nc3cccc(-c4ccc(C(N)=O)c5[nH]c6cc(N7CCCC7=O)ccc6c45)c3C)ncnc2c1 [Example 79-2] | 16.9
41 | Cc1c(Nc2ncnc3ccc(F)cc23)cccc1-c1ccc(C(N)=O)c2[nH]c3cc(N4CCCC4=O)ccc3c12 [Example 79-3] | 15
42 | Cc1c(Nc2ncnc3cc(F)ccc23)cccc1-c1ccc(C(N)=O)c2[nH]c3cc(N4CCCC4=O)ccc3c12 [Example 79-4] | 16
43 | Cc1c(-c2ccc(C(N)=O)c3[nH]c4cc(NC(C)C)ccc4c23)cccc1-n1ccn2ccnc2c1=O [Example 80-1, 7-(isopropylamino)-4-(2-methyl-3-(8-oxoimidazo[1,2-a]pyrazin-7(8H)-yl)phenyl)-9H-carbazole-1-carboxamide] | 1.9
44 | Cc1c(-c2ccc(C(N)=O)c3[nH]c4cc(C(C)(C)O)ccc4c23)cccc1-n1ccn2c(C)cnc2c1=O [Example 81-3] | 1.9
